The values below come from US20240085429A1, “ALTERING PROTEIN FUNCTION BY PHARMACOLOGICAL TARGETING OF MEMBRANE DOMAINS” (University of Virginia Patent Foundation, priority 2021, published 2024).

Where a name gives a salt, the structure may show the parent alone.

Assay [1] concerns human peripheral myelin protein 22 (PMP22). Briefly: HTS of FDA-approved drug library for compounds that alter phase partitioning of PMP22 in GPMVs. To be noted: for hit class in PMP22 screen: 1184 compound library of FDA-approved drugs; for hit class in PMP22 screen / shift of PMP22 phase preference in favor of the ordered (raft) phase: 10 micromolar; for shift of PMP22 phase preference in favor of the ordered (raft) phase: control value 78%, reproducible at 1 micromolar; for effect on relative ordered (raft) vs. disordered phase proportions: in the absence or presence of PMP22. From the text:
By way of example and not limitation, in some embodiments PMP22 containing a MYC epitope sequence was employed in the GPMVs (hereafter referred to as “PMP22”, such as by expressing a MYC-Tagged PMP22 in Hela cells, followed by formation of PMP22 containing GPMVs, followed by addition of a commercial fluorescently labeled anti-MYC antibody to confer fluorescence to PMP22 in GPMVs, thereby making PMP22 detectable to enable its quantitation in the raft phase domains versus in the non-raft phase domains. See Marinko et al. (2020) Proc Natl Acad Sci USA 117(25):14168-14177.
The assay was scaled up to carry out high throughput screens (HTS). The strategy for these screens is similar to those outlined for our approach to finding compounds that shift the raft vs. non-raft phase domain distribution in GPMVs, except that in this case we were interested in discovering compounds that either shift PMP22 out of rafts or enhance its partitioning into the ordered raft phase domain. This pilot HTS screen involved the 1184 compound library of FDA-approved drugs at a concentration of 10 micromolar each and was carried out in the Vanderbilt HTS Core. We predicted that select compounds might sometimes change not only the phase partitioning of PMP22, but also change the actual amounts of ordered (raft) versus disordered phase domains that are present. We also wondered whether PMP22 and certain compounds might act synergistically (through any one of several possible mechanisms) to alter membrane phase behavior. This could potentially cause the compounds to have different effects on the ratio of raft versus disordered domains in the absence relative to the presence of the PMP22 protein. To test these possibilities, we compared the results of our screen to the results of preliminary screens carried out on the same compounds in GPMVs lacking expressed PMP22. This allowed us to directly evaluate the effects of the compounds under both conditions. The plots shown in FIGS. 28A and 28B, as well as additional data not shown reveal several classes of PMP22-impacting hits from this 1184 compound library: […]

In a further assay the test system is GPMVs from HeLa cells. Description: Di4 fluorescence lifetime imaging (lipid packing in GPMVs). The arrangement: species or system human. Particulars: TLCK 1 μM, C6-ceramide 1 μM, MβCD 5 mM. The text has this: It was also of interest how TLCK and C6-ceramide impact other properties of the membrane compared to treatments such as cholesterol depletion that are commonly used to disrupt rafts in cells (Zidovetzki & Levitan, 2007). To test this, we examined their effects on membrane lipid packing and fluidity using a fluorescent reporter of membrane packing, Di-4-[…] (Di4) (Jin et al., 2006; Owen et al., 2006; Sezgin et al., 2014; Levental et al., 2020b; Lorent et al., 2020). As a control, we subjected GPMVs to cholesterol depletion using 5 mM MβCD. The photophysical characteristics of Di4, including its lifetime, are dependent on lipid packing in membranes. In particular, a lower Di4 lifetime is indicative of loose packing and a more fluid membrane environment whereas higher Di4 lifetimes point to a less fluid membranes and tighter lipid packing. […] The phase separated vesicles were characterized by two populations of lifetimes, corresponding to the Lo phase (higher lifetime) and Ld phase (lower lifetime) (FIGS. 11A-11F).
GPMVs were prepared as previously described by Sezgin, E, et al., Nat Protoc 2012, 7 (6), 1042-51. In brief, HeLa cells were washed twice with GPMV buffer (2 mM CaCl2)/10 mM HEPES/0.15 M NaCl, pH 7.4), then washed twice with GPMV active buffer (GPMV buffer containing 25 mM formaldehyde and 2 mM DTT). Cells were then incubated with GPMV active buffer for 1-2 hours at 37° C. with shaking at 90-95 RPM. The GPMV-containing supernatant was decanted into a centrifuge tube and GPMVs were allowed to settle for 1 h. Aliquots of GPMVs (100 μL) were pipetted from the bottom of the Eppendorf tube into separate tubes and treated with DMSO (0.1%), 1 μM TLCK, 1 μM C6-ceramide or 5 mM MbCD. After 5 min, Di 4 […] (Di4) (Thermo Scientific) was added to a final concentration of […] from a stock solution of 1 mg/mL Di4 in ethanol. The GPMVs were then sandwiched between two coverslips coated with 1 mg/mL bovine serum albumin (BSA) solution and allowed to incubate for an additional 20 min prior to lifetime measurements.
Di4 lifetime images were performed on a Leica TCS SP8 system comprising a Leica DMi8 inverted scanning confocal microscope with time-correlated single photon counting (TC-SPC) system and an 80 MHz-pulsed supercontinuum white light laser which allows continuously tunable excitation in the visible range coupled with filter-free detection. Samples were imaged using an HC PL APO CS2 63X/1.20 water objective. Di4 was excited at 488 nm and the emission was collected in the 550-800 nm range. The photon count rate was kept under 0.5 photons per laser pulse by adjusting the laser power, and sufficient frames were cumulatively acquired to obtain at least 100 photons per pixel. The fluorescence decay curves were fit with a bi-exponential re-convolution function adjusted to the instrument response function, and the average intensity-weighted lifetime was calculated for individual vesicles or area of interest and represented in the FLIM images as Di4 lifetime. Data are reported from two independent experiments. Statistical analyses were performed using GraphPad Prism 9.3.0.

With `CN(C)c1ccc(C(=C2C=CC(=[N+](C)C)C=C2)c2ccc(N(C)C)cc2)cc1` [Crystal violet], in assay [1], the “hit class in PMP22 screen” value is “false positive”.
Consider `Clc1ccc2c(c1)CCc1cccnc1C2=C1CCNCC1` [Desloratadine], for which, in assay [1], the “shift of PMP22 phase preference in favor of the ordered (raft) phase” value is on record as roughly 10%, the “hit class in PMP22 screen” value was “Class I” and the “effect on relative ordered (raft) vs. disordered phase proportions” value is given as “without significantly perturbing”.
On to `CSc1ccc2c(c1)N(CCC1CCCCN1C)c1ccccc1S2` (stereo not drawn) [Thioridazine-HCl], for which, in assay [1], the “shift of PMP22 phase preference in favor of the ordered (raft) phase” value is roughly 10%, the “hit class in PMP22 screen” value is recorded as “Class I” and the “effect on relative ordered (raft) vs. disordered phase proportions” value is “without significantly perturbing”.
With MβCD, the “phase state of GPMVs in FLIM images” value with GPMVs from HeLa cells (room temperature) was “multiple domains with the same lifetime”. For the same compound, the “average Di4 lifetime” value in the assay on GPMVs from HeLa cells (single-phase GPMVs (MβCD: average across all domains), control 2.53±0.06 ns, mean±SD) came out at 1.99±0.09 ns.
